Test results: patent US11613531B2, “Inhibitors of RHO associated coiled-coil containing protein kinase” (Kadmon Corporation, LLC, priority 2017, dated 2023)
Where two headings read alike, the source gives them in different places.

Assays:
[1] = molecular target: Recombinant ROCK1 (amino acids 1-535) (Homo sapiens (Human), UniProt Q13464); test: Z′-Lyte kinase assay, ROCK1; format: biochemical; conditions: for inhibition at 3 µM: 3 μM compound; for inhibition at 3 µM / inhibition at 0.5 µM: read-out: ROCK1 % inh. @ [conc]; for inhibition at 0.5 µM: 0.5 μM compound
Recombinant ROCK1 (amino acids 1-535), sequence (Q13464 1-535): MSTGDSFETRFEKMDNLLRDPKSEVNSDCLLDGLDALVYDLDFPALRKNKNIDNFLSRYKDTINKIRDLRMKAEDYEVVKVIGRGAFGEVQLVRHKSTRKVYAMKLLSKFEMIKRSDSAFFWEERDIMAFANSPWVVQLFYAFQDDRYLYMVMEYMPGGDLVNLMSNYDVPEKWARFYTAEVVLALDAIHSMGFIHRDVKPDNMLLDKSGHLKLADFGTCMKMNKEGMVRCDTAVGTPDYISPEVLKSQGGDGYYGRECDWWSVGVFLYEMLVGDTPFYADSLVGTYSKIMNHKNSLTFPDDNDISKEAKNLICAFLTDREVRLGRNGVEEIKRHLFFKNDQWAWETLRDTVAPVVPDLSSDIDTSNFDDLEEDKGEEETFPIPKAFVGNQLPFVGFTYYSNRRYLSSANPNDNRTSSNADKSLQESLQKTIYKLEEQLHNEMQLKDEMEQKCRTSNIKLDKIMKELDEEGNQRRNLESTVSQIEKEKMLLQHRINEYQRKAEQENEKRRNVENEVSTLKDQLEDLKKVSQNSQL
Method: Determination of Compound's ROCK Inhibitory Activity In Vitro (Z'Lyte Assay).
Recombinant ROCK1 (amino acids 1-535) and ROCK2 (amino acids 1-552) proteins were purchased from ThermoFisher Scientific. Compound's activities were measured by Z′-lyte kinase kit (ThermoFisher Scientific) and IC50 was calculated
In vitro activities for the compounds were measured with Z′-lyte kinase kit (ThermoFisher Scientific). The percent inhibition rate was calculated by normalizing the kinase activity value obtained with 1 μM compound treatment against DMSO control value and then applied to the formula, [1-(compound/DMSO)]×100%. IC50s were calculated using the nonlinear regression curve fit function of the GraphPad Prism software with kinase activities data measured with 9 points 2-fold serial dilution of compounds treatment. In cell pMLC IC50s were calculated with data obtained from A7R5 cell experiments. A7R5 cells were treated with 9 points 2-fold serial dilution of compounds and ppMlc (T18/S19) levels were determined to calculate cellular IC50 values of the compounds using the nonlinear regression curve fit function of the GraphPad Prism software. NIH3T3 cells stably expressing ACTA2-promoter-driven-luciferase were applied to measure ROCK compounds functional IC50s in cells. Cells were plated in 96 well plates to confluence and treated with 9 points serial dilution of compounds in combination with TGFβ1 for 24 hr. Luciferase activities were measured and compound's IC50s were calculated using the nonlinear regression curve fit function of the GraphPad Prism software.

[2] = molecular target: Recombinant ROCK2 (amino acids 1-552) (Homo sapiens (Human), UniProt O75116); test: Z′-Lyte kinase assay, ROCK2; format: biochemical; conditions: for inhibition at 3 µM: 3 μM compound; for inhibition at 0.5 µM: 0.5 μM compound
Recombinant ROCK2 (amino acids 1-552), sequence (O75116 1-552): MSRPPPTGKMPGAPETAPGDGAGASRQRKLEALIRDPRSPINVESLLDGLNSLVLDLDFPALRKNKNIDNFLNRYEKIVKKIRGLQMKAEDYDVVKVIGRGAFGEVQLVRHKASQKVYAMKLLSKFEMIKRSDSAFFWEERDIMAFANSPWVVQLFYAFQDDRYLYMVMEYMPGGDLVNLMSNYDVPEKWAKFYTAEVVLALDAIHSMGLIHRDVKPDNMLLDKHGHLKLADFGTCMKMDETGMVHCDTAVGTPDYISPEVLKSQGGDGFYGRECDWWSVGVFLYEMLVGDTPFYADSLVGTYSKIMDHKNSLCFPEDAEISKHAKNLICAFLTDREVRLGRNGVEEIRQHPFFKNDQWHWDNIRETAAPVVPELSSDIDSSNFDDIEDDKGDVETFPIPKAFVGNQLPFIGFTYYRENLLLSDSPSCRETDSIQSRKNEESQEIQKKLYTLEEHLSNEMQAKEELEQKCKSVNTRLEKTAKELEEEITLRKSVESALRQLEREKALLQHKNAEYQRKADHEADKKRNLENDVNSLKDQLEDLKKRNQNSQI
In short: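 IC50s derive from nonlinear curve fits over a 9-point, 2-fold dilution series, with single-point inhibition at 1 μM expressed relative to DMSO. Activity of truncated human ROCK1 (residues 1-535) and ROCK2 (residues 1-552) measured with the Z′-Lyte kinase format.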

[3] = tested on: ppMlc (T18/S19) levels in A7R5 cells; test: A7R5 in-cell ELISA (pMLC); format: cell-based, Rat; conditions: Rattus norvegicus, A7R5, A7R5 cells; for inhibition at 10 µM: 10 μM compound
In short: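 Cellular IC50 came from a nonlinear regression fit of ppMlc (T18/S19) signal, read by colorimetric in-cell ELISA on fixed cells. Rat A7R5 aortic smooth muscle cells had been exposed for 90 min to compounds in 9-point 2-fold serial dilution, 24 h after seeding.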

[4] = read-out: ROCK2 % inh. @ [conc]
[5] = 9 points 2-fold serial dilution
[6] = read-out: pMLC % inh A7R5 @ [conc]

Structure (SMILES) | inhibition at 3 µM [1] [%] | inhibition at 3 µM [2, 4] [%] | IC50 [2, 5] [nM] | IC50 ([3]; ppMlc (T18/S19)) [nM] | inhibition at 10 µM [3, 6] [%] | inhibition at 0.5 µM [1] [%] | inhibition at 0.5 µM [2, 4] [%] | IC50 [2] [nM] | further results
c1cc2[nH]ncc2cc1Nc1nc(N2CC3CCC(C2)N3)nc2c1COC2 [Example 39, 2-(3,8-diazabicyclo[3.2.1]octan-3-yl)-N-(1H-indazol-5-yl)-5,7-dihydrofuro[3,4-d]pyrimidin-4-amine] |  |  |  |  |  | 67 | 64 |  | inhibition at 1 µM ([3]; 1 μM compound, read-out: pMLC % inh A7R5 @ [conc]): 6.6%
c1cc2[nH]ncc2cc1Nc1nc(N2C3CCC2CNC3)nc2c1COCC2 [Example 46, 2-(3,8-diazabicyclo[3.2.1]octan-8-yl)-N-(1H-indazol-5-yl)-7,8-dihydro-5H-pyrano[4,3-d]pyrimidin-4-amine] |  |  |  |  |  | 98 | 98 | 1 | 
c1cc(-c2cn[nH]c2)ccc1Nc1nc(N2C3CCC2CNC3)nc2c1COCC2 [Example 243, N-(4-(1H-pyrazol-4-yl)phenyl)-2-(3,8-diazabicyclo[3.2.1]octan-8-yl)-7,8-dihydro-5H-pyrano[4,3-d]pyrimidin-4-amine] |  |  |  |  |  | 67 | 80 | 56 | 
c1cc2c(Nc3ccc4[nH]ncc4c3)nc(N3C4CCC3CNC4)nc2s1 [Example 274, 2-(3,8-diazabicyclo[3.2.1]octan-8-yl)-N-(1H-indazol-5-yl)thieno[2,3-d]pyrimidin-4-amine] |  |  |  |  |  | 101 | 99 | 0.4 | 
c1cc2[nH]ncc2cc1Nc1nc(N2C3CCC2CNC3)nc2c1CNC2 [Example 275, 2-(3,8-diazabicyclo[3.2.1]octan-8-yl)-N-(1H-indazol-5-yl)-6,7-dihydro-5H-pyrrolo[3,4-d]pyrimidin-4-amine] |  |  |  |  |  | 95 | 90 | 1.2 | 
c1cc(-c2cn[nH]c2)ccc1Nc1nc(N2C3CCC2CNC3)nc2c1CNC2 [Example 276, N-(4-(1H-pyrazol-4-yl)phenyl)-2-(3,8-diazabicyclo[3.2.1]octan-8-yl)-6,7-dihydro-5H-pyrrolo[3,4-d]pyrimidin-4-amine] |  |  |  |  |  | 88 | 91 | 2.3 | 
c1cc(-c2cn[nH]c2)ccc1Nc1nc(N2C3CCC2CNC3)nc2c1COC2 [Example 279, N-(4-(1H-pyrazol-4-yl)phenyl)-2-(3,8-diazabicyclo[3.2.1]octan-8-yl)-5,7-dihydrofuro[3,4-d]pyrimidin-4-amine] |  |  |  |  |  | 76 | 85 | 40 | 
c1cc2nc(N3C4CCC3CNC4)nc(Nc3ccc4[nH]ncc4c3)c2s1 [Example 282, 2-(3,8-diazabicyclo[3.2.1]octan-8-yl)-N-(1H-indazol-5-yl)thieno[3,2-d]pyrimidin-4-amine] |  |  |  |  |  | 101 | 99 | < 0.1 | 
CCOC(=O)[C@]12CCNCCC1CN(c1ncc(F)c(Nc3ccc4[nH]ncc4c3)n1)C2 (stereo partly drawn) [Example 322, Ethyl (3αR,8αR)-2-(4-((1H-indazol-5-yl)amino)-5-fluoropyrimidin-2-yl)octahydropyrrolo[3,4-d]azepine-3α(1H)-carboxylate] |  |  |  |  |  | 17 | 29 |  | 
CCOC(=O)[C@]12CCNCCC1CN(c1ncc(Cl)c(Nc3ccc4[nH]ncc4c3)n1)C2 (stereo partly drawn) [Example 323, Ethyl (3αR,8αR)-2-(4-((1H-indazol-5-yl)amino)-5-chloropyrimidin-2-yl)octahydropyrrolo[3,4-d]azepine-3α(1H)-carboxylate] |  |  |  |  |  | 17 | 29 |  | 
CCOOCC12CNCC1(C(F)(F)F)CN(c1ncc(F)c(Nc3ccc4[nH]ncc4c3)n1)C2 (stereo not shown) [Example 328, N-(2-(3a-((ethylperoxy)methyl)-6a-(trifluoromethyl)hexahydropyrrolo[3,4-c]pyrrol-2(1H)-yl)-5-fluoropyrimidin-4-yl)-1H-indazol-5-amine] |  |  |  |  |  | 8 | 7 |  | 
CCOC(=O)C12CNCC1(C(F)(F)F)CN(c1ncc(Cl)c(Nc3ccc4[nH]ncc4c3)n1)C2 (stereo not shown) [Example 338, Ethyl 2-(4-((1H-indazol-5-yl)amino)-5-chloropyrimidin-2-yl)-6a-(trifluoromethyl)hexahydropyrrolo[3,4-c]pyrrole-3a(1H)-carboxylate] |  |  |  |  |  | 3 | 13 |  | 
CCOC(=O)C1NC2CC1CN(c1ncc(F)c(Nc3ccc4[nH]ncc4c3)n1)C2 (stereo not shown) [Example 339, Ethyl 3-(4-((1H-indazol-5-yl)amino)-5-fluoropyrimidin-2-yl)-3,6-diazabicyclo[3.2.1]octane-7-carboxylate] |  |  |  |  |  | 56 | 75 | 211 | 

The next lines start with results.

inhibition at 3 µM [1] [%] | inhibition at 3 µM [2, 4] [%] | IC50 [2, 5] [nM] | IC50 ([3]; ppMlc (T18/S19)) [nM] | Structure (SMILES) | inhibition at 10 µM [3, 6] [%] | inhibition at 0.5 µM [1] [%] | inhibition at 0.5 µM [2, 4] [%] | IC50 [2] [nM] | further results
98.3 | 102 | 54 | 63 | Cc1cc(Nc2ccc3[nH]ncc3c2)nc(N2CCCNCC2)n1 [Example 5, N-(2-(1,4-diazepan-1-yl)-6-methylpyrimidin-4-yl)-1H-indazol-5-amine] | 86 |  |  |  | 
 |  | 107 | 460 | COc1cnc(N2CCCNCC2)nc1Nc1ccc2[nH]ncc2c1 [Example 7, N-(2-(1,4-diazepan-1-yl)-5-methoxypyrimidin-4-yl)-1H-indazol-5-amine] | 98.3 |  |  |  | IC50 [1, 5]: 65 nM; inhibition at 1 µM ([2]; 1 μM compound, read-out: ROCK2 % inh. @ [conc]): 96%
 |  | 20 | 565 | c1cc2nc(N3CCCNCC3)nc(Nc3ccc4[nH]ncc4c3)c2s1 [Example 10, 2-(1,4-diazepan-1-yl)-N-(1H-indazol-5-yl)thieno[3,2-d]pyrimidin-4-amine] | 90 | 94 | 98 |  | 
 |  | 31 | 1120 | c1cc2[nH]ncc2cc1Nc1nc(N2CCCNCC2)nc2c1COC2 [Example 11, 2-(1,4-diazepan-1-yl)-N-(1H-indazol-5-yl)-5,7-dihydrofuro[3,4-d]pyrimidin-4-amine] | 89 | 76 | 93 |  | 
 |  | 206 |  | c1ccc(C2CN(c3nccc(Nc4ccc(-c5ccncc5)cc4)n3)CCCN2)cc1 (stereo not shown) [Example 18, 2-(3-phenyl-1,4-diazepan-1-yl)-N-(4-(pyridin-4-yl)phenyl)pyrimidin-4-amine] | 11 |  |  |  | IC50 [1, 5]: 332 nM
102 | 101 |  |  | c1cc(Nc2ccc3[nH]ncc3c2)nc(N2CCNCC2)n1 [Example 34, N-(2-(piperazin-1-yl)pyrimidin-4-yl)-1H-indazol-5-amine] | 62.4 |  |  | 29 | IC50 [1]: 31 nM; IC50 [3]: 393 nM
100 | 98.9 |  |  | c1cc(Nc2ccc3[nH]ncc3c2)nc(N2CCCNCC2)n1 [Example 35, N-(2-(1,4-diazepan-1-yl)pyrimidin-4-yl)-1H-indazol-5-amine] | 68.1 |  |  | 15 | IC50 [1]: 16 nM; IC50 [3]: 416 nM
99 | 98.8 | 120 | 730 | CC1CN(c2nccc(Nc3ccc(-c4ccncc4)cc3)n2)CCCN1 (stereo not shown) [Example 43, 2-(3-methyl-1,4-diazepan-1-yl)-N-(4-(pyridin-4-yl)phenyl)pyrimidin-4-amine] |  |  |  |  | IC50 [1, 5]: 135 nM
99 | 98.8 | 649 | 2120 | CC1CCN(c2nccc(Nc3ccc(-c4ccncc4)cc3)n2)CCN1 (stereo not shown) [Example 45, 2-(5-methyl-1,4-diazepan-1-yl)-N-(4-(pyridin-4-yl)phenyl)pyrimidin-4-amine] |  |  |  |  | IC50 [1, 5]: 307 nM
17.4 | 93.4 |  | 1220 | CC1CCN(c2nccc(Nc3ccc4[nH]ncc4c3)n2)CCN1 (stereo not shown) [Example 57, N-(2-(5-methyl-1,4-diazepan-1-yl)pyrimidin-4-yl)-1H-indazol-5-amine] | 60.6 |  |  |  | 
99 | 98.8 | 144 | 1080 | CCC1CN(c2nccc(Nc3ccc4[nH]ncc4c3)n2)CCN1 (stereo not shown) [Example 58, N-(2-(3-ethylpiperazin-1-yl)pyrimidin-4-yl)-1H-indazol-5-amine] |  |  |  |  | IC50 [1, 5]: 192 nM
100 | 100 | 902 | 4780 | CC(C)C1CN(c2nccc(Nc3ccc4[nH]ncc4c3)n2)CCN1 (stereo not shown) [Example 59, N-(2-(3-isopropylpiperazin-1-yl)pyrimidin-4-yl)-1H-indazol-5-amine] |  |  |  |  | IC50 [1, 5]: 671 nM
